Assay results: publication PMC10562414, “GLP-1R signaling neighborhoods associate with the susceptibility to adverse drug reactions of incretin mimetics” (Nature Communications, 2023)

Tests used:
[1] = Adverse drug event analysis (FAERS, log likelihood ratio); details: for proportion, Abdominal pain: ADR_TERM Abdominal pain; for proportion, Eructation: ADR_TERM Eructation; for proportion, Nausea: ADR_TERM Nausea; for proportion, Pancreatic disease: ADR_TERM Pancreatic disease; for proportion, Vomiting: ADR_TERM Vomiting; for logLR: Fig. 6d
[2] = ref [56], [57], cited from earlier work
GLP-1R = GLP-1R (Homo sapiens, UniProt P43220); assay: ebBRET pathway activation (effector membrane translocation, 15 pathways) at the plasma membrane (rGFP-CAAX); type: cell-based; details: plasma membrane rGFP-CAAX, HEK293, agonist incubation 0 min, normalized to the highest responding drug, F test P < 0.00625, n=3-6
Chain of GLP-1R (P43220 24-463): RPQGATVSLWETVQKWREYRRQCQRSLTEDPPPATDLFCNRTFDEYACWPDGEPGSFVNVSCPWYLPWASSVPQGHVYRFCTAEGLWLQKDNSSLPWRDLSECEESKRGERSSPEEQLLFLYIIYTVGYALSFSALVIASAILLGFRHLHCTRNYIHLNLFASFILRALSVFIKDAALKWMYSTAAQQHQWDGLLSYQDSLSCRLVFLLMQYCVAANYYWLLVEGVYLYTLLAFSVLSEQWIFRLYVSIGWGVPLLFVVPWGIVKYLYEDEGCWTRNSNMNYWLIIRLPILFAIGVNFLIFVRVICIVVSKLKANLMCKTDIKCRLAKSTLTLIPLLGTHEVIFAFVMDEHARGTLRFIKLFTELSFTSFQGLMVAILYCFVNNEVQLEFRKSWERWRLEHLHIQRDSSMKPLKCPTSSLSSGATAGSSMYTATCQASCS

[3] = Supplementary Fig. 21, first group
[4] = Supplementary Fig. 21, fourth group (r25-r28)
[5] = Supplementary Fig. 21, third group (r21-r24)
[6] = SOC Endocrine disorders, FAERS via Open Targets
[7] = SOC Gastrointestinal disorders, FAERS via Open Targets
[8] = SOC Investigations, FAERS via Open Targets
[9] = SOC Metabolism and nutrition disorders, FAERS via Open Targets

**Q.** Which “proportion, Abdominal pain” value ([1]; Supplementary Fig. 21) does the source give for `CCCCCCCCCCCCCCCC(=O)N[C@@H](CCC(=O)NCCCC[C@H](NC(=O)[C@H](C)NC(=O)[C@H](C)NC(=O)[C@H](CCC(N)=O)NC(=O)CNC(=O)[C@H](CCC(=O)O)NC(=O)[C@H](CC(C)C)NC(=O)[C@H](Cc1ccc(O)cc1)NC(=O)[C@H](CO)NC(=O)[C@H](CO)NC(=O)[C@@H](NC(=O)[C@H](CC(=O)O)NC(=O)[C@H](CO)NC(=O)[C@@H](NC(=O)[C@H](Cc1ccccc1)NC(=O)[C@@H](NC(=O)CNC(=O)[C@H](CCC(=O)O)NC(=O)[C@H](C)NC(=O)[C@@H](N)Cc1cnc[nH]1)[C@@H](C)O)[C@@H](C)O)C(C)C)C(=O)N[C@@H](CCC(=O)O)C(=O)N[C@@H](Cc1ccccc1)C(=O)N[C@H](C(=O)N[C@@H](C)C(=O)N[C@@H](Cc1c[nH]c2ccccc12)C(=O)N[C@@H](CC(C)C)C(=O)N[C@H](C(=O)N[C@@H](CCCNC(=N)N)C(=O)NCC(=O)N[C@@H](CCCNC(=N)N)C(=O)NCC(=O)O)C(C)C)[C@@H](C)CC)C(=O)O` [Liraglutide] here?
**A.** 0.02341

**Q.** What about the “proportion, Adenocarcinoma pancreas” value ([1]; Supplementary Fig. 21, ADR_TERM Adenocarcinoma pancreas) of the same molecule?
**A.** 0.01752

**Q.** And the “proportion, Eructation” value ([1]; Supplementary Fig. 21)?
**A.** 0.03019

**Q.** And the “proportion, Nausea” value ([1]; Supplementary Fig. 21)?
**A.** 0.07705

**Q.** And the “proportion, Pancreatic disease” value [1, 3]?
**A.** 0.08817

**Q.** What about the “proportion, Pancreatic disease” value [1, 4] of the same molecule?
**A.** 0.1539

**Q.** What about the “proportion, Pancreatic disease” value ([1]; Supplementary Fig. 21, second group (r20)) of the same molecule?
**A.** 0.02656

**Q.** What about the “proportion, Pancreatic disease” value [1, 5] of the same molecule?
**A.** 0.5446

**Q.** What about the “proportion, Vomiting” value ([1]; Supplementary Fig. 21) of the same molecule?
**A.** 0.03854

**Q.** Which “pancreatitis reports, in words” value ([2]; FAERS) does the source give for `CC[C@H](C)[C@H](NC(=O)[C@H](Cc1ccccc1)NC(=O)[C@H](CCC(=O)O)NC(=O)[C@H](CCCCNC(=O)COCCOCCNC(=O)COCCOCCNC(=O)CC[C@H](NC(=O)CCCCCCCCCCCCCCCCC(=O)O)C(=O)O)NC(=O)[C@H](C)NC(=O)[C@H](C)NC(=O)[C@H](CCC(N)=O)NC(=O)CNC(=O)[C@H](CCC(=O)O)NC(=O)[C@H](CC(C)C)NC(=O)[C@H](Cc1ccc(O)cc1)NC(=O)[C@H](CO)NC(=O)[C@H](CO)NC(=O)[C@@H](NC(=O)[C@H](CC(=O)O)NC(=O)[C@H](CO)NC(=O)[C@@H](NC(=O)[C@H](Cc1ccccc1)NC(=O)[C@@H](NC(=O)CNC(=O)[C@H](CCC(=O)O)NC(=O)C(C)(C)NC(=O)[C@@H](N)Cc1cnc[nH]1)[C@@H](C)O)[C@@H](C)O)C(C)C)C(=O)N[C@@H](C)C(=O)N[C@@H](Cc1c[nH]c2ccccc12)C(=O)N[C@@H](CC(C)C)C(=O)N[C@H](C(=O)N[C@@H](CCCNC(=N)N)C(=O)NCC(=O)N[C@@H](CCCNC(=N)N)C(=O)NCC(=O)O)C(C)C` [Semaglutide] here?
**A.** lower incidence of pancreatitis

**Q.** What about the “logLR, diabetic ketoacidosis” value [2, 6] of the same molecule?
**A.** 101.6

**Q.** And the “logLR, diabetic retinopathy” value [2, 6]?
**A.** 83.01

**Q.** What about the “logLR, abdominal pain” value [2, 7] of the same molecule?
**A.** 80.54

**Q.** And the “logLR, diarrhoea” value [2, 7]?
**A.** 91.4

**Q.** And the “logLR, eructation” value [2, 7]?
**A.** 76.22

**Q.** What about the “logLR, gastrointestinal disorder” value [2, 7] of the same molecule?
**A.** 66.93

**Q.** And the “logLR, nausea” value [2, 7]?
**A.** 351

**Q.** And the “logLR, pancreatic carcinoma” value [2, 7]?
**A.** 37.15

**Q.** And the “logLR, pancreatitis” value [2, 7]?
**A.** 599.6

**Q.** And the “logLR, pancreatitis acute” value [2, 7]?
**A.** 54.4

**Q.** And the “logLR, vomiting” value [2, 7]?
**A.** 332.8

**Q.** What about the “logLR, decreased appetite” value ([2]; SOC General disorders and administration site conditions, FAERS via Open Targets) of the same molecule?
**A.** 42.19

**Q.** And the “logLR, blood glucose increased” value [2, 8]?
**A.** 43.39

**Q.** What about the “logLR, glycosylated haemoglobin increased” value [2, 8] of the same molecule?
**A.** 60.95

**Q.** And the “logLR, heart sounds” value [2, 8]?
**A.** 49.27

**Q.** What about the “logLR, lipase increased” value [2, 8] of the same molecule?
**A.** 49.97

**Q.** What about the “logLR, weight decreased” value [2, 8] of the same molecule?
**A.** 122.9

**Q.** What about the “logLR, dehydration” value [2, 9] of the same molecule?
**A.** 53.42

**Q.** What about the “logLR, euglycaemic diabetic ketoacidosis” value [2, 9] of the same molecule?
**A.** 71.84

**Q.** What about the “logLR, retinopathy” value [2, 9] of the same molecule?
**A.** 95.38

**Q.** And the “logLR, acute kidney injury” value ([2]; SOC Renal and urinary disorders, FAERS via Open Targets)?
**A.** 39.07

**Q.** And the “logLR, prolonged expiration” value ([2]; SOC Respiratory disorders, FAERS via Open Targets)?
**A.** 36.95

**Q.** What about the logLR ([1]; Endocrine disorders: diabetic ketoacidosis) of the same molecule?
**A.** 101.6

**Q.** What about the logLR ([1]; Endocrine disorders: diabetic retinopathy) of the same molecule?
**A.** 83.01

**Q.** What about the logLR ([1]; Gastrointestinal disorders: abdominal pain) of the same molecule?
**A.** 80.54

**Q.** What about the logLR ([1]; Gastrointestinal disorders: diarrhoea) of the same molecule?
**A.** 91.4

**Q.** And the logLR ([1]; Gastrointestinal disorders: eructation)?
**A.** 76.22

**Q.** And the logLR ([1]; Gastrointestinal disorders: gastrointestinal disorder)?
**A.** 66.93

**Q.** What about the logLR ([1]; Gastrointestinal disorders: nausea) of the same molecule?
**A.** 351

**Q.** What about the logLR ([1]; Gastrointestinal disorders: pancreatic carcinoma) of the same molecule?
**A.** 37.15

**Q.** And the logLR ([1]; Gastrointestinal disorders: pancreatitis)?
**A.** 599.6

**Q.** And the logLR ([1]; Gastrointestinal disorders: pancreatitis acute)?
**A.** 54.4

**Q.** And the logLR ([1]; Gastrointestinal disorders: vomiting)?
**A.** 332.8

**Q.** And the logLR ([1]; General disorders and administration site conditions: decreased appetite)?
**A.** 42.19

**Q.** And the logLR ([1]; Investigations: blood glucose increased)?
**A.** 43.39

**Q.** And the logLR ([1]; Investigations: glycosylated haemoglobin increased)?
**A.** 60.95

**Q.** And the logLR ([1]; Investigations: heart sounds)?
**A.** 49.27

**Q.** What about the logLR ([1]; Investigations: lipase increased) of the same molecule?
**A.** 49.97

**Q.** What about the logLR ([1]; Investigations: weight decreased) of the same molecule?
**A.** 122.9

**Q.** And the logLR ([1]; Metabolism and nutrition disorders: dehydration)?
**A.** 53.42

**Q.** And the logLR ([1]; Metabolism and nutrition disorders: euglycaemic diabetic ketoacidosis)?
**A.** 71.84

**Q.** And the logLR ([1]; Metabolism and nutrition disorders: retinopathy)?
**A.** 95.38

**Q.** What about the logLR ([1]; Renal and urinary disorders: acute kidney injury) of the same molecule?
**A.** 39.07

**Q.** What about the logLR ([1]; Respiratory disorders: prolonged expiration) of the same molecule?
**A.** 36.95

**Q.** And the “proportion, Abdominal pain” value ([1]; Supplementary Fig. 21)?
**A.** 0.04766

**Q.** What about the “proportion, Diarrhoea” value ([1]; Supplementary Fig. 21, ADR_TERM Diarrhoea) of the same molecule?
**A.** 0.05408

**Q.** What about the “proportion, Eructation” value ([1]; Supplementary Fig. 21) of the same molecule?
**A.** 0.0451

**Q.** What about the “proportion, Gastrointestinal disorder” value ([1]; Supplementary Fig. 21, ADR_TERM Gastrointestinal disorder) of the same molecule?
**A.** 0.03961

**Q.** And the “proportion, Nausea” value ([1]; Supplementary Fig. 21)?
**A.** 0.2077

**Q.** And the “proportion, Pancreatic disease” value [1, 3]?
**A.** 0.02198

**Q.** What about the “proportion, Pancreatic disease” value [1, 4] of the same molecule?
**A.** 0.03219

**Q.** And the “proportion, Pancreatic disease” value [1, 5]?
**A.** 0.3548

**Q.** And the “proportion, Vomiting” value ([1]; Supplementary Fig. 21)?
**A.** 0.1969

**Q.** What does the source list for `CC[C@H](C)[C@H](NC(=O)[C@H](Cc1ccccc1)NC(=O)[C@H](CCC(=O)O)NC(=O)[C@H](CCCCN)NC(=O)[C@H](C)NC(=O)[C@H](C)NC(=O)[C@H](CCC(N)=O)NC(=O)CNC(=O)[C@H](CCC(=O)O)NC(=O)[C@H](CC(C)C)NC(=O)[C@H](Cc1ccc(O)cc1)NC(=O)[C@H](CO)NC(=O)[C@H](CO)NC(=O)[C@@H](NC(=O)[C@H](CC(=O)O)NC(=O)[C@H](CO)NC(=O)[C@@H](NC(=O)[C@H](Cc1ccccc1)NC(=O)[C@@H](NC(=O)CNC(=O)[C@H](CCC(=O)O)NC(=O)[C@H](C)NC(=O)[C@H](Cc1c[nH]cn1)NC(=O)[C@H](CCCNC(=N)N)NC(=O)[C@H](CCC(=O)O)NC(=O)[C@H](Cc1ccccc1)NC(=O)[C@H](CCC(=O)O)NC(=O)[C@H](CC(=O)O)NC(=O)[C@@H](N)Cc1c[nH]cn1)[C@@H](C)O)[C@@H](C)O)C(C)C)C(=O)N[C@@H](C)C(=O)N[C@@H](Cc1c[nH]c2ccccc12)C(=O)N[C@@H](CC(C)C)C(=O)N[C@H](C(=O)N[C@@H](CCCCN)C(=O)NCC(=O)N[C@@H](CCCNC(=N)N)C(=O)NCC(=O)O)C(C)C` [GLP-1 (1-37)]?
**A.** Efficacy (normalized), GRK2/Gβγ (GLP-1R; GRK2-D110A-RlucII): 0; Efficacy (normalized), Gα13 (GLP-1R; PDZRhoGEF-RlucII): 0; Efficacy (normalized), Gαi1 (GLP-1R; Rap1Gap-RlucII): 0; Efficacy (normalized), Gαi2 (GLP-1R; Rap1Gap-RlucII): 0; Efficacy (normalized), Gαi3 (GLP-1R; Rap1Gap-RlucII): 0; Efficacy (normalized), GαoA (GLP-1R; Rap1Gap-RlucII): 0; Efficacy (normalized), GαoB (GLP-1R; Rap1Gap-RlucII): 0; Efficacy (normalized), Gαz (GLP-1R; Rap1Gap-RlucII): 0; Efficacy (normalized), Gαs (GLP-1R; Rluc8-mGs): 0; Efficacy (normalized), Gα11 (GLP-1R; p63RhoGEF-RlucII): 0; Efficacy (normalized), Gα14 (GLP-1R; p63RhoGEF-RlucII): 0; Efficacy (normalized), Gα15 (GLP-1R; p63RhoGEF-RlucII): 0; Efficacy (normalized), Gαq (GLP-1R; p63RhoGEF-RlucII): 0; Efficacy (normalized), βARR2 (GLP-1R; β-arrestin-2-RlucII): 0
